Measurements reported in article PMC6912361, “Systemic Toxicity Reported for CDK8/19 Inhibitors CCT251921 and MSC2530818 Is Not Due to Target Inhibition” (Cells, 2019).
pIC50, pKd: −log10 of the molar value. Like-named read-outs stand apart in the source and are kept apart here.

Assays:
CDK19 [1] = molecular target: T1, CDK19 (Homo sapiens, UniProt Q9BWU1); assay: Cell-based QPCR assay of CDK8/19-dependent gene expression, HEK293 CDK8 single-knockout (8KO) cells; design: CDK8 single-knockout (8KO); endogenous in cells; host or cells: HEK293 CDK8 knockout (8KO); settings: HEK293 8KO, 1 h pre-treatment, then 10 ng/mL TNFα 2 h
Target sequence in this assay (Q9BWU1 whole entry): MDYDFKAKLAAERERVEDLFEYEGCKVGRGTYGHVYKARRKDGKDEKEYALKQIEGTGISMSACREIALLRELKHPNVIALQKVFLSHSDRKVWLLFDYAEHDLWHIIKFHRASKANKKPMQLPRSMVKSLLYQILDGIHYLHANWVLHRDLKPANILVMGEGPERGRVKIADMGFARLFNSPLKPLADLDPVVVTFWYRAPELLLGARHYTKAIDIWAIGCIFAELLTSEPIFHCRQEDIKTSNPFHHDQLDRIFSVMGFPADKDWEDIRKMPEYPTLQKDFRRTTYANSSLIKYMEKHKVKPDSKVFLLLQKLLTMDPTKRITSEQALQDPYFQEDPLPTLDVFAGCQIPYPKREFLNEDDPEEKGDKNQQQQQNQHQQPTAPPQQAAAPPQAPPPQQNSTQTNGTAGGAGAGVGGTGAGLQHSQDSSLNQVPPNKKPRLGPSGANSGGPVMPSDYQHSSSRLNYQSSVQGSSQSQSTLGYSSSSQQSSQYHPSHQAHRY
Target sequence in this assay (P24863 whole entry partner): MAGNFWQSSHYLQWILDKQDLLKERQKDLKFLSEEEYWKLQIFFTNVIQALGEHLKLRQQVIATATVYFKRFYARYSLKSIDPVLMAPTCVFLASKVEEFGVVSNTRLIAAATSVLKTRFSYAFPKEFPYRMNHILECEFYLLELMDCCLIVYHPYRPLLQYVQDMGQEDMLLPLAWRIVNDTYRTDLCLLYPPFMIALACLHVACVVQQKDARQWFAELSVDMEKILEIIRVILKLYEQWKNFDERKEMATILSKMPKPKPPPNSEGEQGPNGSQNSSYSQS
Description: (§3) CDK8/CDK19 single knockout and double knockout derivatives of human embryonic kidney (HEK) 293 cells (ATCC CRL-1573) were generated as previously described [18]. All cells were cultured in DMEM (high-glucose) media supplemented with 10% fetal bovine serum (FBS) and Penicillin-Streptomycin-Glutamine (1×) at 37 °C with 5% CO2 and routinely confirmed to be free of mycoplasma.
(§4) Total RNA was extracted using RNAeasy Mini Kit (Qiagen, Germantown, MD, USA) and 1 µg of total RNA was used to generate cDNA using iScript cDNA synthesis kit (Bio-Rad Laboratories, Hercules, CA, USA). Gene expression was quantified using iTaq Universal SYBR green super mix using CFX384 Real-Time System (Bio-Rad).
(§5) The IC50 values for different inhibitors in inhibiting CDK8/19-dependent gene expression were calculated using a three-parameter least square (ordinary) fitting method with GraphPad Prism 7.0 (GraphPad Software, San Diego, CA, USA). The Kruskal–Wallis non-parametric ANOVA was used to compare gene expression levels under no-inhibitor conditions between wild-type cells and knockout derivatives (8KO, 19KO and dKO) with GraphPad Prism 7.0.
(§6) Cells were pre-treated with different concentrations of CDK8/19 inhibitors for 1 h and then 10 ng/mL TNFα, an inducer of transcription factor NFκB, which is potentiated by CDK8/19 [5], was added for 2 h before RNA extraction. QPCR was carried out to quantify CDK8/19-regulated expression of NFκB-inducible genes CXCL1 and CXCL8 and the basal expression of MYC.

CDK8/19 [2] = assay: Cell-based QPCR assay of CDK8/19-dependent gene expression, HEK293 parental (WT) cells; design: species or system human
Description: All cells were cultured in DMEM (high-glucose) media supplemented with 10% fetal bovine serum (FBS) and Penicillin-Streptomycin-Glutamine (1×) at 37 °C with 5% CO2 and routinely confirmed to be free of mycoplasma.
as §4
The IC50 values for different inhibitors in inhibiting CDK8/19-dependent gene expression were calculated using a three-parameter least square (ordinary) fitting method with GraphPad Prism 7.0 (GraphPad Software, San Diego, CA, USA).
as §6

CDK8 = CDK8 (Homo sapiens, UniProt P49336); assay: Cell-based QPCR assay of CDK8/19-dependent gene expression, HEK293 CDK19 single-knockout (19KO) cells; design: CDK19 single-knockout (19KO); endogenous in cells; host or cells: HEK293 CDK19 knockout (19KO); settings: HEK293 19KO, 1 h pre-treatment, then 10 ng/mL TNFα 2 h
Description: as §3, §4, §5, §6

PIKFYVE [3] = molecular target: T2, PIKFYVE (Homo sapiens, UniProt Q9Y2I7); assay: KdELECT Kd determination, PIKFYVE; design: purchased DiscoverX; settings: 11-point 3-fold serial dilution, duplicate; read-out: Kd for the inhibition of nucleotide binding, PIKFYVE
Description: (§1) The screening platform employs an active site-directed competition binding assay to quantitatively measure interactions between test compounds and targeting kinases. […] To determine dissociation constants (Kds) of compounds on different targets, an 11-point 3-fold serial dilution of each test compound was tested in independent duplicate assays.
(§2) This assay has been previously used with many CDK8/19 inhibitors, including cortistatin A and its equipotent analog dCA [20, 21]; 15w.

JNK1 (MAPK8) = molecular target: T3, JNK1 (MAPK8) (Homo sapiens, UniProt P45983); assay: KdELECT Kd determination, JNK1; settings: 11-point 3-fold serial dilution, duplicate; read-out: Kd for the inhibition of nucleotide binding, JNK1 (MAPK8)
T3 construct: purchased DiscoverX
Description: as §1, §2

[4] = design: method as in PMID 26796641; settings: mice, 30 mg/kg/d; cited from earlier work
rats = settings: cited from earlier work
CDK19 [5] = molecular target: T1, CDK19; assay: KdELECT Kd determination, CDK19; format: binding; design: purchased DiscoverX
Description: To determine dissociation constants (Kds) of compounds on different targets, an 11-point 3-fold serial dilution of each test compound was tested in independent duplicate assays.
Target sequence in this assay (Q9BWU1 whole entry): as the sequence (Q9BWU1 whole entry) above

[6] = system: non-dechorionated embryos of zebrafish TU strain; assay: Zebrafish toxicity assay, non-dechorionated embryos (TU strain); format: in vivo; settings: 2 μM; TU strain
Description: The toxicity studies in non-dechorionated embryos of zebrafish TU strain were approved by the Institutional Animal Care and Use Committee of the University of South Carolina. The studies were conducted in sterile 24-well plates with one 24 hpf embryo in each well in a 1 mL volume of egg water. For each plate, 6 wells were treated with vehicle control and the other 18 wells (i.e., biological replicates) were treated with different CDK8/19 inhibitors at different concentrations. […] All the data from the plates with at least five healthy vehicle-treated embryos on day 5 were compiled together for final data analysis.

STK16 = molecular target: T4, STK16 (Homo sapiens, UniProt O75716); assay: KdELECT Kd determination, STK16; settings: 11-point 3-fold serial dilution, duplicate; read-out: Kd for the inhibition of nucleotide binding, STK16
T4 construct: purchased DiscoverX
Description: as §1, §2

PIKFYVE [7] = molecular target: T2, PIKFYVE; assay: Phase-contrast microscopy for intracellular large vesicular structures (PIKFYVE inhibition); format: cell-based; design: endogenous in cells; host or cells: HEK293-WT and HEK293-dKO; settings: 3 h; both WT and dKO 293 cells
Description: To evaluate PIKFYVE kinase inhibition, HEK293-WT and HEK293-dKO cells were treated with CDK8/19 inhibitors at different drug concentrations for 3 h. Phase-contrast microscopy was then used to detect the formation of intracellular large vesicular structures, associated with PIKFYVE inhibition.

[8] = design: method as in PMID 27935476; settings: colon cancer and leukemia mouse xenograft models; cited from earlier work
dogs = settings: cited from earlier work
[9] = system: STAT1 S727 phosphorylation; assay: Western blot of STAT1 S727 phosphorylation in 293-dKO cells; format: cell-based, human; settings: for CDK8/19-independent STAT1 S727 phosphorylation in dKO 293 cells, effect of cytotoxic drugs: 3 h, 50 μM etoposide, 50 nM Taxol; for Basal STAT1 S727 phosphorylation in dKO cells, effect of cytokines: 20 ng/mL EGF, 40 ng/mL TNFα, 1 h after 24 h serum starvation
Description: Cells were cultured in 60-mm dishes and treated under different conditions before being lysed in RIPA lysis buffer with protease/phosphatase inhibitor cocktail. The protein concentration of extracts was determined using the DC protein assay (Bio-Rad Laboratories). Protein samples (50 μg) were resolved on 4–12% Express-Plus PAGE gels in Tris-MOPS (SDS) running buffer (GenScript, Piscataway, NJ, USA), transferred to PVDF membranes and incubated at 4 °C overnight with primary antibodies STAT1 (sc-592, Santa Cruz Biotechnology, Dallas, TX, USA) and pSTAT1-Ser727 (#8826, Cell Signaling Technology, Danvers, MA, USA) followed by anti-rabbit (NA934, GE Healthcare, Chicago, IL, USA) secondary antibodies. Bands were visualized with Western Lighting Plus ECL detection reagent (Perkin Elmer, Waltham, MA, USA) using ChemiDoc Touch™ (Bio-Rad). Images were analyzed using ImageLab (Bio-Rad) and ImageJ (version 1.52p) software for protein signal quantification.

CDK8/19 [10] = assay: Wash-off study: stability of inhibition of CDK8/19-dependent gene expression in 293 cells; format: cell-based, human; settings: 30 nM, 3 h, then drug-free media
Description: We then asked if such toxicity could be associated with the stability of CDK8/19 inhibition. […] Then the drug-containing media were removed, cells were washed twice with PBS and cultured in fresh drug-free media for different periods of time before being lysed for RNA extraction and QPCR analysis of mRNA expression of MYC, JUN and ADAMTS1.

[11] = IC50, CXCL1 mRNA expression, 8KO
[12] = IC50, CXCL8 mRNA expression, 8KO
[13] = read-out: IC50, CXCL1 mRNA expression, WT; HEK293 WT; 1 h pre-treatment, then 10 ng/mL TNFα 2 h; QPCR
[14] = read-out: IC50, CXCL8 mRNA expression, WT; HEK293 WT; 1 h pre-treatment, then 10 ng/mL TNFα 2 h; QPCR
[15] = read-out: IC50, MYC mRNA expression, WT; HEK293 WT; 1 h pre-treatment, then 10 ng/mL TNFα 2 h; QPCR

Chain of CDK8 (P49336 whole entry): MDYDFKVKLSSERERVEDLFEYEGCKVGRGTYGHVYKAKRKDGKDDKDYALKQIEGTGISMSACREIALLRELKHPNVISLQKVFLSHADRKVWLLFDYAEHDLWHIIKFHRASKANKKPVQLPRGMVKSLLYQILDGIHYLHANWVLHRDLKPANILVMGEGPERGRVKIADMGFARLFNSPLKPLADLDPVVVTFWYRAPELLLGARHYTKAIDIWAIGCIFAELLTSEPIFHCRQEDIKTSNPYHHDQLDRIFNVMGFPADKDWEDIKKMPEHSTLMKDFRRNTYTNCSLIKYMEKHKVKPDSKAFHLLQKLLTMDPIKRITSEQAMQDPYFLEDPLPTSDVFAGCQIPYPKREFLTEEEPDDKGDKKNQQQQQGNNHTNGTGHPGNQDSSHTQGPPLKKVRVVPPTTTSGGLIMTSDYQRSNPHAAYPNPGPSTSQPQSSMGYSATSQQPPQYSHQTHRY
Chain of CDK8 (P24863 whole entry partner): as the sequence (P24863 whole entry partner) above
T2 sequence (Q9Y2I7 whole entry): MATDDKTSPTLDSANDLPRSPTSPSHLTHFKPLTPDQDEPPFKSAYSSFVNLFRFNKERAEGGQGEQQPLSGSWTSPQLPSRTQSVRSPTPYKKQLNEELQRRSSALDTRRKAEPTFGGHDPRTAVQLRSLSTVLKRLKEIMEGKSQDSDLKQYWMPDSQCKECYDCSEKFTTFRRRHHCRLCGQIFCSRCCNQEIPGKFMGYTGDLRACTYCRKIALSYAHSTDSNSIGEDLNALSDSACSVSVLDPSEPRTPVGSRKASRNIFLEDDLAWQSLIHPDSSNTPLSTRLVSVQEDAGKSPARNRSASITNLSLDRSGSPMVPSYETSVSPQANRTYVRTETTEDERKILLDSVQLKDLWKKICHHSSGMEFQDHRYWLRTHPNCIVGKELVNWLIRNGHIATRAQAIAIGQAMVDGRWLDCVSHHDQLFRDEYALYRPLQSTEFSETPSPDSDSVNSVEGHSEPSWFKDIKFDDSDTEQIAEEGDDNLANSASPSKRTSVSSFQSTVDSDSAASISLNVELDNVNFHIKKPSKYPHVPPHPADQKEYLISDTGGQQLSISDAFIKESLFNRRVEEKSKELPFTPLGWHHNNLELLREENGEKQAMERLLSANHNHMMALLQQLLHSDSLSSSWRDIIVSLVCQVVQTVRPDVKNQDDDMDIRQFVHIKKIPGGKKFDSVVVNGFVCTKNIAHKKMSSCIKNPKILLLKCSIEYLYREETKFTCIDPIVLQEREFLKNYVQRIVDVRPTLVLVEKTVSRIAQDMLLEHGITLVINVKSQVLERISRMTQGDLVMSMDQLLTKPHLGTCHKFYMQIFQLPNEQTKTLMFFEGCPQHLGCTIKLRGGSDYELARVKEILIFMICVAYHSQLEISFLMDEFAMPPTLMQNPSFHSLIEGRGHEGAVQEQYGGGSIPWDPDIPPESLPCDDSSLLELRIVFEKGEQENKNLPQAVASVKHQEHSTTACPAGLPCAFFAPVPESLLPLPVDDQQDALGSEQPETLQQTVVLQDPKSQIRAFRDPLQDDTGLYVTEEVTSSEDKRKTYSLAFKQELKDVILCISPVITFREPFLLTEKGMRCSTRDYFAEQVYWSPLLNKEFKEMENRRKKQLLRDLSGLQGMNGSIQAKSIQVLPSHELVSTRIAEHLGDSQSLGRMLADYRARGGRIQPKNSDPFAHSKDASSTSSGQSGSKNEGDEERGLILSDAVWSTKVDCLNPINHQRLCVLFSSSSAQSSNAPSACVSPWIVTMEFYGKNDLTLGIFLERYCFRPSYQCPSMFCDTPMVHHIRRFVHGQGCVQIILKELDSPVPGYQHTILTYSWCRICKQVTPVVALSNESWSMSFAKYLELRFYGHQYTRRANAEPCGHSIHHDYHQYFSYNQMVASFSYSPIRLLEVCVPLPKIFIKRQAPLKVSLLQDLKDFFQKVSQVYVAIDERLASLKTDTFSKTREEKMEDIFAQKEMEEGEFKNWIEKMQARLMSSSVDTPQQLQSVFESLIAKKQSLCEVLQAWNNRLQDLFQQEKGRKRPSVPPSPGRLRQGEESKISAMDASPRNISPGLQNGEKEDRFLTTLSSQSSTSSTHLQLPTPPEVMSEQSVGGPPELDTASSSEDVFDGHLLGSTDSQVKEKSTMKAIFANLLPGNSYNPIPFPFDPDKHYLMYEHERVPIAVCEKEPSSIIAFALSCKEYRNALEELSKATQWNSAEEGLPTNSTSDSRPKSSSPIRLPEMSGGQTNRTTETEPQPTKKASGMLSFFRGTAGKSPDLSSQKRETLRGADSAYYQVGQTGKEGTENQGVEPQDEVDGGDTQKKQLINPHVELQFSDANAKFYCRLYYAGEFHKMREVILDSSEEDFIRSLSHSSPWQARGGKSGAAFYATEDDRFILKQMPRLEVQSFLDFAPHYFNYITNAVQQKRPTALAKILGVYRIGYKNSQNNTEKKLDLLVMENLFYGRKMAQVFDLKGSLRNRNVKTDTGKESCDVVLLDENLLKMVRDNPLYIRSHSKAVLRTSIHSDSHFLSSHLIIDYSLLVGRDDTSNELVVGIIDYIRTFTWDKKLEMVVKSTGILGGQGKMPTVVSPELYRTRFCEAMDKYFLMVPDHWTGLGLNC
T3 sequence (P45983 whole entry): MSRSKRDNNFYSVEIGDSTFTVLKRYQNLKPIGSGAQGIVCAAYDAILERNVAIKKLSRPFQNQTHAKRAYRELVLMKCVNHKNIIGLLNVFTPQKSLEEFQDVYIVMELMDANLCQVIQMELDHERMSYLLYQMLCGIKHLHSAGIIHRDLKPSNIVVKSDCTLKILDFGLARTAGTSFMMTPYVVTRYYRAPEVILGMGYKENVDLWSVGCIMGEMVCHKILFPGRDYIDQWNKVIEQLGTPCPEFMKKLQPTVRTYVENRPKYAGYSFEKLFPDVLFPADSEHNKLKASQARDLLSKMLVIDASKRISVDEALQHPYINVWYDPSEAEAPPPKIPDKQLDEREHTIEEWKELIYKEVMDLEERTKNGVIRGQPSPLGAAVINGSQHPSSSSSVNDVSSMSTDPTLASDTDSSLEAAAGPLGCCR
T4 sequence (O75716 whole entry): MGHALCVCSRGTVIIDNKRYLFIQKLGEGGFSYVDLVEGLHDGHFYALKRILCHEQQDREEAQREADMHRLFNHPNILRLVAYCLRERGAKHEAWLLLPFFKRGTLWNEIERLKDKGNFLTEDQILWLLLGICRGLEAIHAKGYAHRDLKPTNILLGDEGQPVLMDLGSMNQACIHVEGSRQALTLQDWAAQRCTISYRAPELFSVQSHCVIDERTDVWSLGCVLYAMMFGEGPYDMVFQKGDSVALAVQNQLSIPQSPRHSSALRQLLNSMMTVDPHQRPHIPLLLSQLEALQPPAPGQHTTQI

Work on CN(C)C(=O)Cc1ccc(N2CCCN(c3ccnc4sc(C(N)=O)c(N)c34)CC2)cc1 [15w] yielded a pIC50 (CDK19 [1]; read-out: IC50, CXCL1 mRNA expression, 8KO) of 8.27, a pIC50 (CDK19 [1]; read-out: IC50, CXCL8 mRNA expression, 8KO) of 8.27 and a pIC50 (CDK19 [1]; read-out: IC50, MYC mRNA expression, 8KO) of 8.21. For the same compound, the pIC50 (CDK8/19 [2]; HEK293 WT; 1 h pre-treatment, then 10 ng/mL TNFα 2 h; QPCR; read-out: IC50, CXCL1 mRNA expression, WT) was 8.21, the pIC50 (CDK8/19 [2]; HEK293 WT; 1 h pre-treatment, then 10 ng/mL TNFα 2 h; QPCR; read-out: IC50, CXCL8 mRNA expression, WT) was 8.26 and the pIC50 (CDK8/19 [2]; HEK293 WT; 1 h pre-treatment, then 10 ng/mL TNFα 2 h; QPCR; read-out: IC50, MYC mRNA expression, WT) was 8.40. It also gave a pIC50 (CDK8; read-out: IC50, CXCL1 mRNA expression, 19KO) of 8.28, a pIC50 (CDK8; read-out: IC50, CXCL8 mRNA expression, 19KO) of 8.38 and a pIC50 (CDK8; read-out: IC50, MYC mRNA expression, 19KO) of 8.60.

Cn1ncc2cc(-c3cnc(N)c(Cl)c3N3CCC4(CCNC4=O)CC3)ccc21 [Cmpd3] showed a pKd (PIKFYVE [3]) of 7.00, a pKd (JNK1 (MAPK8)) of 6.41 and a pIC50 (CDK19 [1]; [11]) of 8.51. The pIC50 (CDK19 [1]; [12]) was 8.21, the pIC50 (CDK19 [1]; IC50, MYC mRNA expression, 8KO) was 9.05 and the “Total plasma concentration after 1 h” value [4] was 14.1 µM. The “Total plasma concentration after 2 h” value [4] was 6.9 µM, the “Total plasma concentration after 6 h” value [4] was 0.8 µM and the pIC50 (CDK8/19 [2]; [13]) was 8.49. The pIC50 (CDK8/19 [2]; [14]) was 8.48, the pIC50 (CDK8/19 [2]; [15]) was 8.39 and the Toxicity in rats (rats) was “multiple and striking toxicities, including lethality”. The pKd (CDK19 [5]) was 7.23, the “Toxicity in zebrafish assays at higher concentrations” value [6] was “moderate but significant toxicity” and the pKd (STK16) was 6.38. The “Formation of large vesicular structures inside cells” value (PIKFYVE [7]) was “caused the formation of large vesicular structures”, the “Weight loss in mice” value [8] was “detectable weight loss” and the Toxicity in dogs (dogs) was “multiple and striking toxicities, including lethality”.

With CC(=O)O[C@H]1C(=O)[C@@]2(C)[C@H]([C@H](OC(=O)c3ccccc3)[C@]3(O)C[C@H](OC(=O)[C@H](O)[C@@H](NC(=O)c4ccccc4)c4ccccc4)C(C)=C1C3(C)C)[C@]1(OC(C)=O)CO[C@@H]1C[C@@H]2O [Taxol] the “CDK8/19-independent STAT1 S727 phosphorylation in dKO 293 cells, effect of cytotoxic drugs” value [9] was “increased”.

CN(C)C1CC23CCC4(O2)C(=CCC2(C)C(c5ccc6ccncc6c5)=CCC24)C=C3C(O)C1O (stereo not drawn) [dCA, 16-didehydro-cortistatin A] gave a pIC50 (CDK19 [1]; [11]) of 8.96, a pIC50 (CDK19 [1]; [12]) of 9.10 and a pIC50 (CDK19 [1]; IC50, MYC mRNA expression, 8KO) of 9.22. The “Stability of CDK8/19 inhibition after wash-off (MYC, JUN, ADAMTS1 mRNA)” value (CDK8/19 [10]) was “by far the most stable”, the pIC50 (CDK8/19 [2]; [13]) was 8.89 and the pIC50 (CDK8/19 [2]; [14]) was 8.85. For the same compound, the pIC50 (CDK8/19 [2]; [15]) was 8.82, the “Toxicity in zebrafish assays at higher concentrations” value [6] was “moderate but significant toxicity” and the pIC50 (CDK8; IC50, CXCL1 mRNA expression, 19KO) was 8.85. The pIC50 (CDK8; IC50, CXCL8 mRNA expression, 19KO) was 9.00 and the pIC50 (CDK8; IC50, MYC mRNA expression, 19KO) was 9.30.

For COc1cc([C@@H]2c3cc4c(cc3[C@@H](O[C@@H]3O[C@@H]5CO[C@@H](C)O[C@H]5[C@H](O)[C@H]3O)[C@H]3COC(=O)[C@H]23)OCO4)cc(OC)c1O [etoposide], the “CDK8/19-independent STAT1 S727 phosphorylation in dKO 293 cells, effect of cytotoxic drugs” value [9] was “increased”.

In the case of “EGF: Recombinant human epidermal growth factor (NSDSECPLSHDGYCLHDGVCMYIEALDKYACNCVVGYIGERCQYRDLKWWELR; UniProt P01133 971-1023, looked up)”, the “Basal STAT1 S727 phosphorylation in dKO cells, effect of cytokines” value [9] was “increased”.

With TNFα the “Basal STAT1 S727 phosphorylation in dKO cells, effect of cytokines” value [9] was “increased”.
